From patent US20190142829A1, “AMELIORATION OF ANGELMAN'S SYNDROME DEFICIENCIES” (Neuralstem, Inc., priority 2017, published 2019) come the findings set out here.

Assay [1] relates to hippocampal slices from normal, healthy, young adult mice (field CA1). In words: LTP elicited by theta burst stimulation in hippocampal slices treated in vitro, normal mice. The format is cell-based. Particulars: 100 nM to 10 μM for up to 3.5 h before theta burst stimulation, applicant's work, Liu et al, SfN Abstract 2016. How it is done:
In work by applicant, hippocampal slices from normal, healthy, young adult mice were treated with various concentrations of NSI-189 (100 nM to 10 μM) for various times up to 3.5 h, before applying theta burst stimulation (TBS) to elicit long-term potentiation (LTP) in field CA1.

In the next assay the test system is wild type mice. In words: LTP assay on post-mortem hippocampal slices after in vivo dosing, wild type mice. Particulars: 30 mg/kg phosphate salt i.p. daily for 18 days, FIG. 2. How it is done:
(§1) Four groups (n=4/5 per group) of young adult mice (age ˜3 months) were administered 30mg/kg of the phosphate salt of NSI-189 i.p. daily for 13-15 days for behavior assays and for 18 days prior to termination followed by in vitro LTP assays or administered only vehicle. The groups included • (1) mice with Angelman syndrome (AS) treated with NSI-189, • (2) mice with Angelman syndrome (AS) treated with vehicle, • (3) wild-type littermates treated with NSI-189, and • (4) wild-type littermates treated with vehicle.

For the next assay, the system named is AS mice. The assay is described as follows: Wire hang test (Hanging Wire test), AS mice. Particulars: phosphate i.p. over 21 days: D1-D7 3, D8-D14 10, D15-D21 30 mg/kg, maximum 120 sec, ultimately matched wild type, FIG. 3. The format is in vivo. How it is done: The wire hang test evaluates muscle strength as well as motor coordination. The set up includes a wire (0.2 cm in diameter×54.5 cm in length) stretched horizontally between two poles and elevated from a padded surface. The test starts when the mouse hangs onto the wire from its two forelimbs and lasts for 120 sec maximum. The time before falling, or the maximum score of 120 sec if no fall occurred, is recorded for each animal.
Four groups 5 mice for each group were used. Controls were administered vehicle and test groups were administered NSI-189 phosphate i.p. over 21 days as follows: D1-D7—3 mg/kg NSI-189 phosphate; D8-D14—10 mg/kg NSI-189 phosphate; D15-D21—30 mg/kg NSI-189 phosphate.
As shown, the AS mice administered only vehicle were not able to hang onto the wire for more than about 20 seconds, whereas AS mice treated with NSI-189 ultimately matched the times of wild type mice at about 100 seconds.

The test system of assay [2] is mice with Angelman syndrome (AS). In words: Fear-conditioning test, mouse model of Angelman syndrome. It is filed as in vivo. As to conditions: 30 mg/kg phosphate salt i.p. daily, 2 weeks, vs vehicle, p<0.01, FIG. 1. How it is done: as §1
The behavior assay conducted was fear-conditioning test as diagnostic of hippocampal memory function.

In assay [3] the test system is hippocampal brain slices prepared from young adult Angelman mice. The assay is described as follows: LTP in hippocampal brain slices treated in vitro, Angelman mice. It is filed as cell-based. Particulars: slices from Angelman mice (maternal Ube3A deletion); transient treatment for 3.5 hours; Liu et al, SfN Abstract 2016. From the text:
Further, in a mouse model of Angelman syndrome, carrying the same maternal Ube3A deletion affected in human AS patients, the normal LTP is absent.

The subject of assay [4] is mice with Angelman syndrome (AS). The assay is described as follows: LTP assay on post-mortem hippocampal slices after in vivo dosing, AS mice. Particulars: 30 mg/kg phosphate salt i.p. daily for 18 days, vs vehicle, p<0.05, FIG. 2. How it is done:
as §1

`CC(C)CCNc1ncccc1C(=O)N1CCN(Cc2ccccc2)CC1.O=P(O)(O)O` [NSI-189]: the “effect on long-term potentiation (LTP) in field CA1” value in assay [1] is on record as “statistically significant enhancement of the normal LTP level”. Also, the “LTP in post-mortem hippocampal slices” value in the assay on wild type mice is reported as “improved”; in assay [4], “restoration of LTP”. Also, in the assay on AS mice, the “time before falling (hanging on the wire)” value was “about 100 seconds”. Further, the “freezing time following ring-tone (memory deficit)” value in assay [2] is recorded as “memory deficit was diminished”. Moreover, in assay [3], the “effect on LTP activity” value is listed as “restore the LTP activity to normal level”.
